{
  "source": "patent US12447156B2",
  "about": "“Treating progressive familial intrahepatic cholestasis (PFIC) with IBAT inhibitors” (ALBIREO AB, priority 2020, dated 2025)",
  "assay": "Water content and water uptake of crystal modification 1 at different relative humidity",
  "format": "physicochemical",
  "data": [
    {"compound": "CCCCC1(CCCC)CN(c2ccccc2)c2cc(SC)c(OCC(=O)N[C@@H](C(=O)N[C@@H](CC)C(=O)O)c3ccc(O)cc3)cc2S(=O)(=O)N1", "note": "[crystal modification 1]", "values": [
      {"measurement": "water content of crystal", "setting": "about 30% relative humidity, based on total crystal weight", "value": "about 3.5 % (w/w)"},
      {"measurement": "hygroscopicity", "setting": "between about 30 and about 70% RH", "value": "relatively low hygroscopicity"},
      {"measurement": "additional water taken up", "setting": "humidity increased up to 95% RH, fully reversible", "value": "1.5 % (w/w)"}
    ]}
  ]
}
